# From patent US20220146526A1, “METHOD FOR EVALUATING SAMPLE, ANALYSIS METHOD, METHOD FOR DETECTING DEGRADED SAMPLE, MARKER FOR DETECTING DEGRADED BLOOD PLASMA SAMPLE, AND MARKER FOR DETECTING DEGRADED SERUM SAMPLE” (SHIMADZU CORPORATION, priority 2019, published 2022)
# Experiments:
# Type in all cases: physicochemical, human
# [1] = GC/MS of serum sample: number of times of freezing and thawing (Table I); parameters: key to Rate of increase or decrease / Rate of increase or decrease (first value, increase): detection intensity relative to 2 freeze-thaw cycles = 1; conditions: for Rate of increase or decrease: detection intensity relative to 1 at 2 times; for Number of times when compound is affected: detection intensity changed by 30% or more vs 2 times of freezing and thawing
# Method in brief: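 Detection intensities are ratios to the value after two freeze–thaw cycles, which is set as 1, compared against 4, 6 and 10 cycles. Analysis used methoxymation and trimethylsilylation derivatization, then GC/MS with EI ionization and multiple reaction monitoring on a BPX5 column. Serum came from blood held at room temperature and spun at 3500 rpm for 5 min.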
# [2] = GC/MS of serum sample: time from centrifugation to isolation (Table H); parameters: key to Rate of increase or decrease / Rate of increase or decrease (first value, increase): detection intensity relative to 1 at 30 min centrifugation-to-isolation; conditions: for Rate of increase or decrease: detection intensity relative to 1 at 30 minutes, after 1 hour; for Increase or decrease: detection intensity, after 1 hour vs 30 minutes
# Method in brief: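 Values are GC/MS (EI, MRM) detection intensities of methoxymated/trimethylsilylated serum, normalised to 1 for the 30-min sample. Serum was isolated 30 min, 1 h or 6 h after room-temperature centrifugation (3500 rpm, 5 min) of blood.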
# [3] = GC/MS of blood plasma sample: time from blood collection to centrifugation (Table A); conditions: for Rate of increase or decrease: detection intensity relative to 1 at 15 minutes; for Rate of increase or decrease / Increase or decrease: blood collection to centrifugation; for Increase or decrease: detection intensity; for Rate of increase or decrease (second value, decrease) / Rate of increase or decrease (first value, increase): different from individual to individual, relative to 1 at 15 minutes, collection to centrifugation; for Rate of increase or decrease (second value, decrease): individuals with decrease; for Rate of increase or decrease (first value, increase): individuals with increase
# Method in brief: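 Read-out is MRM detection intensity by electron-ionization GC/MS on a BPX5 column after methoxymation and trimethylsilylation, expressed relative to a 15-minute collection-to-centrifugation interval. Plasma was prepared from EDTA blood held at 4° C and spun at 4° C, 3000 rpm for 15 minutes, then frozen.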
# [4] = GC/MS of blood plasma sample: number of times of freezing and thawing (Table C); conditions: for Increase or decrease: detection intensity; for Rate of increase or decrease (second value, decrease) / Rate of increase or decrease (first value, increase): different from individual to individual, relative to 1 at 2 times; for Rate of increase or decrease (second value, decrease): individuals with decrease; for Rate of increase or decrease (first value, increase): individuals with increase; for Rate of increase or decrease: detection intensity relative to 1 at 2 times
# Method in brief: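 Values express detection intensity as a ratio to the 2-cycle freeze-thaw sample (=1), compared with 4, 6 and 10 cycles. Healthy-donor EDTA plasma, cooled at ≤1 min or ≥5 min, spun at 4 °C, 3000 rpm, 15 min. Derivatised by methoxymation/trimethylsilylation; GC-MS/MS in MRM mode with electron ionization.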
# [5] = GC/MS of serum sample: time from blood collection to centrifugation (Table G); conditions: blood collection to centrifugation; for Rate of increase or decrease: detection intensity relative to 1 at 15 minutes; for Increase or decrease: detection intensity
# Method in brief: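 Values express detection intensity as a ratio to the sample centrifuged 15 minutes after blood collection (taken as 1). Serum was derivatized by methoxymation and trimethylsilylation, then analysed by electron-ionization GC/MS using multiple reaction monitoring on a BPX5 column ramped from 60 to 330° C.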
# [6] = GC/MS of blood plasma sample: time from blood collection to cooling of blood (Table B); parameters: key to Rate of increase or decrease / Rate of increase or decrease (first value, increase): detection intensity relative to 1 at cooling time ≤1 min; conditions: for Rate of increase or decrease: detection intensity relative to 1 at 1 minute or less, blood collection to cooling 5 minutes; for Increase or decrease: detection intensity, blood collection to cooling 5 minutes or more vs 1 minute or less
# Experimental: At room temperature, 5 mL of blood from a healthy subject was taken into a blood-collecting vessel containing EDTA, and the blood-collecting vessel was inverted for mixing, then cooled, and allowed to stand at 4° C. Here, in order to investigate how the detection intensity of molecules contained in the sample was affected in a case where the time to cooling was set to 5 minutes or more as compared to that in a case where the time to cooling was set to 1 minute or less, preparations were performed under both the former condition and the latter condition. After standing, the blood sample was subjected to centrifugation under a condition of 4° C., 3000 rpm, and 15 minutes. […] After centrifugation, the blood-collecting vessel was left to stand at room temperature for 30 minutes, and the blood plasma was isolated during this 30 minutes. The obtained blood plasma sample was frozen and stored. Here, in order to investigate how the detection intensity of molecules contained in the sample was affected in cases where freezing and thawing was performed 4 times, 6 times, and 10 times after freezing as compared to that in a case where freezing and thawing was performed 2 times after freezing, freezing and thawing was performed under the respective conditions of 2, 4, 6, and 10 times.
# Frozen blood plasma samples and serum samples were subjected to GC/MS or LC/MS. In GC/MS, the blood plasma samples and serum samples were subjected to methoxymation and trimethylsilylation and then introduced to GC-MS.
# GC/MS was conducted using GCMS·TQ8040 (Shimadzu Corporation) that was a GC·MS equipped with AOC·20i (Shimadzu Corporation) as an autosampler.
# Column: BPX5 (inner diameter of 0.25 mm, length of 30 m, and film thickness of 0.25 μm) (SGE)
# Column temperature: maintained at 60° C. for 2 minutes, then raised at 15° C./min, and maintained at 330° C. for 3 minutes.
# Inlet temperature: 250° C.
# Carrier gas control mode: constant linear velocity of 39.0 cm/sec
# Sample introduction method: split (split ratio of 30:1) Injection volume: 1 μL
# Ionization method: electron ionization
# Ionization current: 60 μA
# Interface temperature: 280° C.
# Ion source temperature: 200° C.
# Mode: multiple reaction monitoring (MRM)
# Table B presents compounds of which the detection intensity increased or decreased by 30% or more in a case where the time from blood collection to cooling of blood, when a blood plasma sample was analyzed by GC/MS, was set to 5 minutes or more as compared to that in a case where the time was set to 1 minute or less. The rate of increase or decrease in Table B is the value of detection intensity relative to 1 that is the detection intensity in a case where the time from blood collection to cooling is set to 1 minute or less.
# [7] = 10 times of freezing and thawing
# [8] = serum sample, GC/MS, detection intensity vs 2 times of freezing and thawing
# [9] = freezing and thawing 4 times vs 2 times
# [10] = freezing and thawing 10 times vs 2 times
# [11] = freezing and thawing 6 times vs 2 times
Structure (SMILES),Rate of increase or decrease [2],Increase or decrease [2],Rate of increase or decrease ([3]; after 4 hours),Increase or decrease ([3]; after 4 hours vs 15 minutes),"Increase or decrease [4, 9]","Rate of increase or decrease (second value, decrease) ([4]; freezing and thawing 4 times)","Rate of increase or decrease (first value, increase) ([4]; freezing and thawing 4 times)",Rate of increase or decrease ([5]; after 4 hours),Increase or decrease ([5]; after 4 hours vs 15 minutes),Rate of increase or decrease [6],Increase or decrease [6],"Rate of increase or decrease (second value, decrease) ([3]; after 4 hours)","Rate of increase or decrease (first value, increase) ([3]; after 4 hours)","Increase or decrease [4, 11]",other results
O=C(O)CCCCCCCC(=O)O [Azelaic acid],1.71,Increase,2.03,Increase,Different from individual,0.66,1.45,0.51,Decrease,0.67,Decrease,,,,"Rate of increase or decrease [1, 7]: 9.39; Number of times when compound is affected ([1]; serum sample, GC/MS): 10 times; Increase or decrease [1, 8]: Increase"
"O[C@@H]1[C@@H](O)[C@@H]2OC[C@@H](O2)[C@H]1O [1,6-Anhydroglucose]",2.25,Increase,1.42,Increase,Different from individual,0.42,3.49,,,0.62,Decrease,,,,"Rate of increase or decrease ([1]; serum, GC/MS, freezing and thawing 4 times): 2.25; Increase or decrease ([1]; detection intensity, serum, GC/MS, freezing and thawing 4 times vs 2 times): Increase; Rate of increase or decrease ([5]; after 8 hours): 0.62; Increase or decrease ([5]; after 8 hours vs 15 minutes): Decrease"
O=c1ccn([C@H]2C[C@H](O)[C@@H](CO)O2)c(=O)[nH]1 [2′-Deoxyuridine],,,,,,,,,,0.68,Decrease,,,Different from individual,"Rate of increase or decrease ([3]; after 12 hours): 1.43; Increase or decrease ([3]; after 12 hours vs 15 minutes): Increase; Rate of increase or decrease (second value, decrease) ([4]; freezing and thawing 6 times): 0.67; Rate of increase or decrease (first value, increase) ([4]; freezing and thawing 6 times): 1.43"
CS(=O)(=O)CC[C@H](N)C(=O)O [Methionine sulfone],,,4.98,Increase,Increase,,,,,0.70,Decrease,,,,Rate of increase or decrease ([4]; freezing and thawing 4 times): 1.77
Oc1ccc(O)cc1 [Hydroquinone],,,17.48,Increase,Different from individual,0.69,3.54,,,0.66,Decrease,,,,
NCCc1c[nH]cn1 [Histamine],,,1.78,Increase,,,,,,0.67,Decrease,,,,"Rate of increase or decrease ([4]; freezing and thawing 10 times): 1.63; Increase or decrease [4, 10]: Increase"

# Now from value to molecule, other results behind:
Rate of increase or decrease [2],Increase or decrease [2],Rate of increase or decrease ([3]; after 4 hours),Increase or decrease ([3]; after 4 hours vs 15 minutes),"Increase or decrease [4, 9]","Rate of increase or decrease (second value, decrease) ([4]; freezing and thawing 4 times)","Rate of increase or decrease (first value, increase) ([4]; freezing and thawing 4 times)",Rate of increase or decrease ([5]; after 4 hours),Increase or decrease ([5]; after 4 hours vs 15 minutes),Rate of increase or decrease [6],Increase or decrease [6],"Rate of increase or decrease (second value, decrease) ([3]; after 4 hours)","Rate of increase or decrease (first value, increase) ([3]; after 4 hours)","Increase or decrease [4, 11]",Structure (SMILES),other results
,,,Different from individual,Increase,,,,,1.96,Increase,0.66,4.41,,O=C(CO)[C@H](O)[C@H](O)CO [Ribulose],"Rate of increase or decrease [1, 7]: 0.68; Number of times when compound is affected ([1]; serum sample, GC/MS): 10 times; Increase or decrease [1, 8]: Decrease; Rate of increase or decrease ([4]; freezing and thawing 4 times): 1.38; Rate of increase or decrease ([5]; after 8 hours): 1.72; Increase or decrease ([5]; after 8 hours vs 15 minutes): Increase"
1.60,Increase,,Different from individual,,,,3.20,Increase,0.67,Decrease,0.22,3.36,,OC[C@@H](O)[C@@H](O[C@@H]1O[C@H](CO)[C@H](O)[C@H](O)[C@H]1O)[C@H](O)[C@@H](O)CO [Lactitol],"Rate of increase or decrease ([4]; freezing and thawing 10 times): 1.73; Increase or decrease [4, 10]: Increase"
,,,Different from individual,,,,1.39,Increase,,Increase,0.32,4.90,Decrease,O=P(O)(O)OCC(O)CO (stereo not shown) [Glycerol-3-phosphate],Rate of increase or decrease ([4]; freezing and thawing 6 times): 0.41
1.69,Increase,,Different from individual,,,,,,,Different from individual,0.66,1.69,Different from individual,CC(=O)N[C@@H](CO)C(=O)O [N-acetylserine],"Rate of increase or decrease (second value, decrease) ([4]; freezing and thawing 6 times): 0.69; Rate of increase or decrease (first value, increase) ([4]; freezing and thawing 6 times): 1.39; Rate of increase or decrease ([5]; after 12 hours): 1.44; Increase or decrease ([5]; after 12 hours vs 15 minutes): Increase; Rate of increase or decrease (second value, decrease) ([6]; different from individual to individual, individuals with decrease, relative to 1 at 1 minute or less, collection to cooling 5 minutes): 0.69; Rate of increase or decrease (first value, increase) ([6]; different from individual to individual, individuals with increase, relative to 1 at 1 minute or less, collection to cooling 5 minutes): 1.64"
